Experiments:
[1] = test system: primary human hepatocytes; assay: Lactate dehydrogenase; format: cell-based
[2] = test system: MEK–ERK signaling (p-MEK1, p-ERK1/2); assay: Bio-Plex bead-based phosphoprotein assay, MEK–ERK pathway; format: cell-based, human
[3] = test system: Akt, p70 S6K, MEK–ERK, and p38–HSP27 signaling pathways; settings: donor #2; 100*Cmax

N#CC(=C(/N)Sc1ccccc1N)/C(C#N)=C(/N)Sc1ccccc1N [U0126]
toxicity induced by inhibitor itself in human hepatocytes ([1]; donor #3): minimal toxicity | inhibition of MEK signaling in human hepatocytes ([2]; donor #3, selection from panel of candidate inhibitors): potently inhibit signaling

CC[C@H]1OC(=O)[C@H](C)[C@@H](O[C@H]2C[C@@](C)(OC)[C@@H](O)[C@H](C)O2)[C@H](C)[C@@H](O[C@@H]2O[C@H](C)C[C@H](N(C)C)[C@H]2O)[C@](C)(OC)C[C@@H](C)C(=O)[C@H](C)[C@@H](O)[C@]1(C)O [clarithromycin]
MEK–ERK signaling under drug treatment ([2]; donor #1 and donor #2, 100*Cmax): sustained activation of MEK–ERK signaling

CN(C)CCCN1c2ccccc2CCc2ccc(Cl)cc21 [clomipramine]
activation of the four 'network gauge' signaling pathways compared to control treatments [3]: without significant activation

N[C@@H]1[C@H]2CN(c3nc4c(cc3F)c(=O)c(C(=O)O)cn4-c3ccc(F)cc3F)C[C@@H]12 [trovafloxacin]
synergistic induction of cell death by drug/cytokine co-treatment ([1]; drug ± three-cytokine/LPS mix, donors #1 and #2): synergistically induced
